Key:
[1] = biological target: Adenylate cyclase type 5 (Homo sapiens) (UniProt O95622); experiment: Compound was evaluated for the elicited effect on adenylate cyclase activity in homogenates of carp retina at 10 uM; assay type: functional, tissue-based; details: Cyprinus carpio
Mus musculus [2] = species: Mus musculus; experiment: Evaluated for audiogenic seizures in DBA/ 2 mice, in the protection against paroxysimal EEG at an interval of 30 minutes; assay type: functional; details: 0.5 h
Papio papio [3] = experiment: Duration of protection for abolition of myoclonic responses to photic stimulation in the baboon (Papio papio) at 0.2 mg/kg; Duration of protection ranges from 180-300 min; assay type: functional
Mus musculus [4] = species: Mus musculus; experiment: Evaluated for audiogenic seizures in DBA/ 2 mice, in the protection against paroxysimal EEG at an interval of 20 minutes; assay type: functional
Papio papio [5] = experiment: Duration of protection for abolition of myoclonic responses to photic stimulation in the baboon (Papio papio) at 0.5 mg/kg; Duration of protection ranges from 30-45 min; assay type: functional
Mus musculus [6] = species: Mus musculus; experiment: Evaluated for audiogenic seizures in DBA/ 2 mice, in the protection against paroxysimal EEG at an interval of 60 minutes; assay type: functional; details: 1 h
Papio papio [7] = experiment: Duration of protection for abolition of myoclonic responses to photic stimulation in the baboon (Papio papio) at 0.2 mg/kg; assay type: functional

Sequence of Adenylate cyclase type 5 (Homo sapiens) (O95622 whole entry, looked up): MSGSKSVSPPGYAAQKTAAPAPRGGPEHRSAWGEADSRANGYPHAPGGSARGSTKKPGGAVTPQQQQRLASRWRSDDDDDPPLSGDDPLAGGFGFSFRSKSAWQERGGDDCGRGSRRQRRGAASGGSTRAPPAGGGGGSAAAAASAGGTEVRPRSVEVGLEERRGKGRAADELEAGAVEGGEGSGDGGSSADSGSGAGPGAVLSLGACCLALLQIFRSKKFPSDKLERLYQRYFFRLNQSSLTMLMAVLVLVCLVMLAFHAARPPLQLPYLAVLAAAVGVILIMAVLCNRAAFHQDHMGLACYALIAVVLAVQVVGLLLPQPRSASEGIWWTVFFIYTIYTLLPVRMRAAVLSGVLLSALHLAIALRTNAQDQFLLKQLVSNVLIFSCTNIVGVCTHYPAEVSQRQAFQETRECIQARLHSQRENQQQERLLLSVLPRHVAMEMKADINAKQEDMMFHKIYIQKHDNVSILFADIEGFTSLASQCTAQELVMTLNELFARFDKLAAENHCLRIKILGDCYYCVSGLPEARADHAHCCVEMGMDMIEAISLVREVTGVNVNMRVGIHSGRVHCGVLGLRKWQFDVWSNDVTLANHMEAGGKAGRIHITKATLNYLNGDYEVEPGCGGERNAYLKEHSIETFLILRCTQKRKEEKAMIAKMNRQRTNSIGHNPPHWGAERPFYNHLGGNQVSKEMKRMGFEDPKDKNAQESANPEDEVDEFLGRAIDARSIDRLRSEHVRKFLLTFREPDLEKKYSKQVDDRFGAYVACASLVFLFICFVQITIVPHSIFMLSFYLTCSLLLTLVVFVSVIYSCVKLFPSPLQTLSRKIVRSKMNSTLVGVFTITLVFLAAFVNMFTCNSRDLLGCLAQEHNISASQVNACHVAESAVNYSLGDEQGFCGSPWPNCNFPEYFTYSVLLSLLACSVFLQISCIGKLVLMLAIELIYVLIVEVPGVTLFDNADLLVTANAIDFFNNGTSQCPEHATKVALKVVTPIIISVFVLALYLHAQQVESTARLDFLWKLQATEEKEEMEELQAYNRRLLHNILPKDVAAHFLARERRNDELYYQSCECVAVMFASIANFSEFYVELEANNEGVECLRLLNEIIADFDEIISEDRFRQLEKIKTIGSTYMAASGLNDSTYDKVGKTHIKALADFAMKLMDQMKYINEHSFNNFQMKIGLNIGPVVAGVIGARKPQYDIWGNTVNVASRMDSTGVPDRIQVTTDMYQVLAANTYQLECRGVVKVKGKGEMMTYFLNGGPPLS

Work on `CCCN1CCc2cc(O)cc3c2[C@H]1Cc1ccc(O)c(O)c1-3` yielded a Response [1] of 43.4%, an ED50 (Mus musculus [2]) of 0.72 mg/kg and a Duration (Papio papio [3]) of 180 min.
Work on `CN1CCc2cccc3c2[C@H]1Cc1ccc(O)c(O)c1-3` [APOMORPHINE] yielded an ED50 (Mus musculus [4]) of 0.7 mg/kg and a Duration (Papio papio [5]) of 30 min.
In the case of `CC(C)C[C@H]1C(=O)N2CCC[C@H]2[C@]2(O)O[C@](NC(=O)[C@@H]3C=C4c5cccc6[nH]c(Br)c(c56)C[C@H]4N(C)C3)(C(C)C)C(=O)N12` [BROMOCRIPTINE], the ED50 (Mus musculus [6]) is reported as 5 mg/kg.
`CCCN1CCc2cccc3c2[C@H]1Cc1ccc(O)c(O)c1-3` [R-N-PROPYLNORAPOMORPHINE] was tested, and the ED50 (Mus musculus [2]) was 0.075 mg/kg and the Duration (Papio papio [7]) was 180 min.
